Source: patent US8247211B2, “Glycopeptide antibiotics” (American Cyanamid Company, priority 2001, dated 2012)
In brackets after ≈: the same amount, converted by molar mass.

How the values were obtained:
Streptococcus sp. = experiment: In vitro antibacterial evaluation: minimum inhibitory concentration (MIC), broth dilution method; assay type: cell-based
Summary of the method: (§1)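 An MIC is reported for each organism as the least concentration giving inhibition, using broth dilution over 64-0.06 μg/mL with a 5×10^5 CFU/mL inoculum.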

Enterococcus sp. = experiment: as above; assay type: cell-based
Summary of the method: as §1

Staphylococcus sp. = experiment: as above; assay type: cell-based
Summary of the method: as §1

Escherichia coli = experiment: as above; assay type: cell-based; details: strain ATCC 25922
Summary of the method: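 First, organisms are seeded at 5×10^5 CFU/mL into Muller-Hinton II […]. Next, antibiotic is applied across 64-0.06 μg/mL by broth dilution (NCCLS M7-A2). Finally, the lowest inhibitory concentration is recorded as MIC.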

[1] = test system: Staphylococcus aureus-SMITH (GC 4543); experiment: Acute lethal infection in mice (ED50); assay type: in vivo; details: female CD-1 mice, intraperitoneal challenge, intravenous dose 30 min. after infection, 7 day survival ratios
Summary of the method: (§2)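 Female CD-1 mice challenged intraperitoneally with a bacterial dose lethal to untreated controls within 24-48 h. Compound given intravenously in saline or 5% dextrose 30 min post-infection, five mice per dose; ED50 from 7-day survival pooled over 3 tests.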

[2] = test system: Enterococcus faecalis (GC 2246), vancomycin resistant strain; experiment: Acute lethal infection in mice (ED50); assay type: in vivo; details: female CD-1 mice, intraperitoneal challenge, intravenous dose 30 min. after infection, 7 day survival ratios
Summary of the method: as §2

[3] = broth dilution, 18 hours at 35° C.

With `CC(c1ccccc1)C1NC(=O)CNC(=O)C(CO)NC(=O)C(C(O)C2CNC(=N)N2C2OC(CO)C(O)C(O)C2O)NC(=O)C(C(O)C2CNC(=N)N2)NC(=O)C(Cc2ccc(OC3OC(CO)C(OC4OC(COC(=O)C(c5ccccc5)c5ccccc5)C(O)C(O)C4O)C(O)C3O)cc2)NC1=O` (stereo not drawn) [Example 96c, Cyclo[glycyl-β-methylphenylalanyl-O-[4-O-[6-O-(diphenylacetyl)hexopyranosyl)hexopyranosyl]tyrosyl-3-(2-iminoimidazolidin-4-yl)seryl-3-(3-hexopyranosyl-2-iminoimidazolidin-4-yl)serylseryl]] the “MIC Streptococcus agalactiae (GC 4564)” value (Streptococcus sp.; Streptococcus agalactiae (GC 4564), broth dilution, 18 hours at 35° C.) was under 0.06 µg/mL, the “MIC Streptococcus pneumoniae (GC 4565)” value (Streptococcus sp.; Streptococcus pneumoniae (GC 4565), broth dilution, 18 hours at 35° C.) was under 0.06 µg/mL and the “MIC Streptococcus pyogenes (ID-3187)” value (Streptococcus sp.; Streptococcus pyogenes (ID-3187), broth dilution, 18 hours at 35° C.) was under 0.06 µg/mL. The “MIC Streptococcus agalactiae (GC 4564)” value (Streptococcus sp.; strain GC 4564) was under 0.06 µg/mL, the “MIC Streptococcus pneumoniae (GC 4565)” value (Streptococcus sp.; strain GC 4565) was under 0.06 µg/mL and the “MIC Streptococcus pyogenes (ID-3187)” value (Streptococcus sp.; strain ID-3187) was under 0.06 µg/mL. For the same compound, the “MIC Enterococcus faecalis (GC 2242)” value (Enterococcus sp.; Enterococcus faecalis (GC 2242), broth dilution, 18 hours at 35° C.) was 1 µg/mL (≈ 0.671 µM), the “MIC Enterococcus faecalis (ATCC 29212)” value (Enterococcus sp.; strain ATCC 29212) was 2 µg/mL (≈ 1.34 µM) and the “MIC Enterococcus faecalis (GC 2242)” value (Enterococcus sp.; strain GC 2242) was 1 µg/mL (≈ 0.671 µM). The “MIC Enterococcus faecium (GC 2243)” value (Enterococcus sp.; strain GC 2243) was 2 µg/mL (≈ 1.34 µM), the “MIC Enterococcus faecalis (GC 4552)” value (Enterococcus sp.; strain GC 4552) was 2 µg/mL (≈ 1.34 µM) and the “MIC Enterococcus faecalis (GC 4553)” value (Enterococcus sp.; strain GC 4553) was 2 µg/mL (≈ 1.34 µM). The “MIC Enterococcus faecalis (GC 4554)” value (Enterococcus sp.; strain GC 4554) was 2 µg/mL (≈ 1.34 µM), the “MIC Enterococcus faecium (GC 4556)” value (Enterococcus sp.; strain GC 4556) was 2 µg/mL (≈ 1.34 µM) and the “MIC Enterococcus faecium (GC 4557)” value (Enterococcus sp.; strain GC 4557) was 1 µg/mL (≈ 0.671 µM). For the same compound, the “MIC Enterococcus avium (GC 4558)” value (Enterococcus sp.; strain GC 4558) was 2 µg/mL (≈ 1.34 µM), the “MIC Staphylococcus aureus (ATCC 29213)” value (Staphylococcus sp.; [3]) was 1 µg/mL (≈ 0.671 µM) and the “MIC Staphylococcus aureus (GC 1131)” value (Staphylococcus sp.; [3]) was 0.5 µg/mL (≈ 0.336 µM). The “MIC Staphylococcus aureus (GC 4541)” value (Staphylococcus sp.; [3]) was 0.5 µg/mL (≈ 0.336 µM), the “MIC Staphylococcus aureus (GC 4542)” value (Staphylococcus sp.; [3]) was 1 µg/mL (≈ 0.671 µM) and the “MIC Staphylococcus aureus (GC 4544)” value (Staphylococcus sp.; [3]) was 1 µg/mL (≈ 0.671 µM). For the same compound, the “MIC Staphylococcus aureus (GC 4545)” value (Staphylococcus sp.; [3]) was 0.5 µg/mL (≈ 0.336 µM), the “MIC Staphylococcus aureus-SMITH (GC 4543)” value (Staphylococcus sp.; strain GC 4543, 18 hours at 35° C.) was 0.5 µg/mL (≈ 0.336 µM) and the “MIC Staphylococcus haemolyticus (GC 4546)” value (Staphylococcus sp.; strain GC 4546) was 0.5 µg/mL (≈ 0.336 µM). The “MIC Coagulase Negative Staphylococcus (GC 4547)” value (Staphylococcus sp.; strain GC 4547) was 1 µg/mL (≈ 0.671 µM), the “MIC Coagulase Negative Staphylococcus (GC 4548)” value (Staphylococcus sp.; strain GC 4548) was 0.25 µg/mL (≈ 0.168 µM) and the “MIC Coagulase Negative Staphylococcus (GC 4549)” value (Staphylococcus sp.; strain GC 4549) was 1 µg/mL (≈ 0.671 µM). For the same compound, the “MIC Coagulase Negative Staphylococcus (GC 4551)” value (Staphylococcus sp.; strain GC 4551) was 1 µg/mL (≈ 0.671 µM), the “MIC Coagulase Negative Staphylococcus (ID-3941)” value (Staphylococcus sp.; strain ID-3941) was 0.5 µg/mL (≈ 0.336 µM) and the “MIC Staphylococcus aureus-SMITH (GC 4543)” value (Staphylococcus sp.; strain SMITH GC 4543, broth dilution, 18 hours at 35° C.) was 0.5 µg/mL (≈ 0.336 µM). For the same compound, the “MIC Escherichia coli (ATCC 25922)” value (Escherichia coli) was 64 µg/mL (≈ 43 µM), the median effective dose (ED50), Staphylococcus aureus-SMITH (GC 4543) [1] was 0.29 mg/kg and the median effective dose (ED50), Enterococcus faecalis (GC 2246) [2] was 5.2 mg/kg.
